Measurements taken from patent publication US9526243B2, “Pollination success and seed set in corn hybrid seed production” (priority 2012, dated 2016).

Tests used:
Format in all cases: in vivo, corn (maize, Zea mays)
[1] = test system: Inbred B male plants (corn); assay: GA3 spray to increase male inbred height, Inbred B (Brazil); details: for plant height increase: one application before flowering, 365 g GA3 (10% active ingredient) per hectare
Procedure: (§1) GA3 spray to increase male inbred height was also tested with 2 more inbreds, Inbred B and Inbred C, in Brazil.
Inbred B was sown in two sequential plantings, separated by 80 to 100 heat units. The first planting is referred to as the primary male; the second planting is referred to as the secondary male. The two male plantings were separated in the field by 40 cm; minimum distance from female rows was 70 cm.
(§2) Data were collected after the following treatments: (a) control, (b) GA3: one application, before flowering, when the tassel is enveloped in 2 leaves; (b) GA3: 2 sequential applications, one at V6 stage and 1 application before flowering. The concentration of GA3 used was 365 g of GA3 (10% active ingredient) per hectare (which is approximately equivalent to 40 g of GA3 at 90% active ingredient), and the spray volume was 130 liters/hectare.
(§3) The plot had 5.20 meter length of each row and 60 cm between plots. Ten male plants in sequence for each male row (primary male and secondary male separate) were measured and the average calculation was obtained and replicated 5 times in different plots. Measurements taken were plant height; length of primary rachis of the tassel; number of secondary tassel branches; and visual pollen score where 1=no pollen (sterile), 5=average amount of pollen, and 9=large amount of pollen.

[2] = test system: Inbred C male plants (corn); assay: GA3 spray to increase male inbred height, Inbred C (Brazil)
Procedure: as §1, §2, §3

[3] = test system: male parent plant of Hybrid A (corn)
Description: Hybrid A is a three-way corn hybrid which performs well in rain-fed areas in India. The female parent of this hybrid is a single cross and male parent is an inbred. […] The ear height in female is 94 cm and male plant height (including tassel length) is 190 cm. The ratio of male parent plant height to female parent ear height is 2.02. This is not favorable for pollen dispersal and cross fertilization. A taller male gives a very clear advantage in easy spread of pollen. Further, a height disadvantage is amplified where the female is a single cross and male is inbred, as the robust female parent suppresses male parent growth. […] With less seed yield due to low seed set, seed production may be uneconomical in Hybrid A. Controlled use of Gibberellic Acid as foliar spray for male parent helped increase the plant height and thereby facilitated easier dispersal of pollen for better pollination success.
When GA3 was sprayed on male parent at a given dosage, the last few internodes were elongated and the plant height was increased by 33 cm. The ratio of male parent plant height to female parent ear height increased from 2.02 in control (no GA3 spray) to 2.40 after spray. This spray was done when a minimum of 80% of the plants had the tassel wrapped in two leaves.
A field trial was conducted to study the impact of GA3 on male parent plant height and also seed yield in hybrid seed production. GA3 dose of 10 g (dissolved in 100 ml alcohol) was sprayed in one acre of male plants (25% of area in 3:1 row ratio) when male tassel is wrapped up in two leaves.

[4] = Inbred B, one GA application vs control
[5] = Inbred B, two sequential GA treatments (V6 and before flowering), relative to control, primary and secondary males

`C=C1C[C@]23C[C@@]1(O)CC[C@H]2[C@@]12C=C[C@H](O)[C@@](C)(C(=O)O1)[C@H]2[C@@H]3C(=O)O` [GA3, gibberellin A3] was tested, and the plant height increase ([1]; Inbred B primary males) was “about 10 cm”, the plant height increase ([1]; Inbred B secondary males) was about 15 cm and the “height of male parent plants” value ([1]; Inbred B, GA3 concentration increased to 16 g/1000 m^2 of male plants) was “increase further”. The “number of secondary branches on the rachis” value [1, 4] was “did not change significantly”, the primary rachis length [1, 4] was “did not change significantly” and the pollen score ([1]; Inbred B, one GA application vs control, visual score 1-9) was “did not change significantly”. For the same compound, the pollen score [1, 5] was “reduced”, the “size of the main rachis” value [1, 5] was “reduced” and the “effect of a second application compared with a single application” value ([2]; 2 sequential applications (V6 and before flowering)) was “not more favorable than a single application”. For the same compound, the “number of secondary branches on the rachis” value ([2]; one GA application vs control) was “did not change significantly”, the primary rachis length ([2]; one GA application vs control) was “did not change significantly” and the pollen score ([2]; one GA application vs control, visual score 1-9) was “did not change significantly”. For the same compound, the plant height increase ([2]; one application of GA3) was about 12 cm, the yield improvement ([3]; Hybrid A experimental plot, GA3 treatment vs control) was 32% and the “hybrid seed yield with GA3 treatment” value ([3]; Hybrid A experimental plot, control 607 Kg/Acre) was 803 Kg/Acre. The “negative or deleterious effects on other plant processes” value ([3]; Hybrid A male parent after GA3 spray) was “without any negative or deleterious effects”, the “increase in male parent plant height” value ([3]; Hybrid A male parent, GA3 10 g sprayed when tassel wrapped in two leaves, vs control (no GA3 spray)) was 33 cm and the “male parent plant height increase” value ([3]; Hybrid A male parent, after spraying GA3, from 190 cm) was 17%. For the same compound, the “male parent plant height after spraying GA3” value ([3]; Hybrid A male parent, control 190 cm) was 223 cm and the “ratio of male parent plant height to female parent ear height after spray” value ([3]; Hybrid A, after GA3 spray, control 2.02) was 2.40.
